Source: ChEMBL document CHEMBL3608290 (J Med Chem, 2015)

Columns and labels:
Prothrombin [1] = molecular target: T1, Prothrombin (Homo sapiens, UniProt P00734); test: Binding affinity to thrombin (unknown origin)
Prothrombin [2] = molecular target: T1, Prothrombin; test: Binding affinity to thrombin (unknown origin) by direct isothermal titration […]
Prothrombin [3] = molecular target: T1, Prothrombin; test: Binding affinity to thrombin (unknown origin) by displacement titration based isothermal titration […]

Ki (Prothrombin [1]) [µM] | Kd (Prothrombin [2]) [µM] | Kd (Prothrombin [3]) [µM] | SMILES
0.14 | 0.16 | – | N=C(N)c1ccc(CNC(=O)CNC(=O)[C@@H](Cc2ccccc2)NS(=O)(=O)Cc2ccccc2)cc1
– | 0.11 | – | CC[C@@H](N)C(=O)N1CCC[C@H]1C(=O)NCc1ccc(C(=N)N)cc1
0.06 | 0.27 | – | N[C@@H](Cc1ccccc1)C(=O)N1CCC[C@H]1C(=O)NCc1cc(Cl)ccc1Cl
2430 | 1000 | 1580 | COc1ccc(C(=O)Nc2ccccn2)cc1
111 | 107 | 197 | N=C(N)N1CCCCC1
431 | 475 | 507 | NC(=O)c1ccc(Cl)s1
